{"source": "patent US11708348B2", "about": "“Protease inhibitors for treatment of coronavirus infections” (The Scripps Research Institute, priority 2021, dated 2023)", "tested_on": "SARS-CoV-2 strain USA-WA1/2020", "experiment": "microbe, parasite or virus in culture", "format": "cell-based", "conditions": "Severe acute respiratory syndrome coronavirus 2, HeLa-ACE2, 24 h, read-out: EC50, uM (Hela)", "key": {"[1]": {"conditions": "HeLa-ACE2 cells, SARS-CoV-2 infection, 24 h"}, "[2]": {"conditions": "HeLa-ACE2 cells, SARS-CoV-2 infection, 24 h, class symbols"}}, "note": "Read-outs that look alike come from different tables or passages of the source.", "data": [{"smiles": "CC(=O)N1C[C@H](C(F)(F)F)C[C@H]1C(=O)N[C@@H](C[C@@H]1CCNC1=O)C(=O)COC(F)(F)F", "note": "[Compound 724, (2S,4R)-1-acetyl-N-((S)-3-oxo-1-((S)-2-oxopyrrolidin-3-yl)-4-(trifluoromethoxy)butan-2-yl)-4-(trifluoromethyl)pyrrolidine-2-carboxamide]", "values": [{"measurement": "EC50", "setting": "[1]", "result": "0.05 to 0.2", "unit": "µM"}]}, {"smiles": "O=C(Nc1ccccc1OC(F)(F)F)C(=O)N1CC2(CC2)C[C@H]1C(=O)N[C@@H](C[C@@H]1CCNC1=O)C(=O)COC(F)(F)F", "note": "[Compound 610, (S)-N-((S)-3-oxo-1-((S)-2-oxopyrrolidin-3-yl)-4-(trifluoromethoxy)butan-2-yl)-5-(2-oxo-2-((2-(trifluoromethoxy)phenyl)amino)acetyl)-5-azaspiro[2.4]heptane-6-carboxamide]", "values": [{"measurement": "EC50", "setting": "[1]", "result": "< 0.05", "unit": "µM"}]}, {"smiles": "CC(C)C[C@H](NC(=O)C(C)(C)O)C(=O)N[C@@H](C[C@@H]1CCNC1=O)C(=O)COC(F)(F)F", "note": "[Compound 353, (S)-2-(2-hydroxy-2-methylpropanamido)-4-methyl-N-((S)-3-oxo-1-((S)-2-oxopyrrolidin-3-yl)-4-(trifluoromethoxy)butan-2-yl)pentanamide]", "values": [{"measurement": "EC50", "setting": "[2]", "result": "0.05 to 0.2", "unit": "µM"}]}, {"smiles": "CC(C)(C)[C@H](NC(=O)OC1CC1)C(=O)N1C[C@H]2[C@@H]([C@H]1C(=O)N[C@@H](C[C@@H]1CCNC1=O)C(=O)COC(F)(F)F)C2(C)C", "note": "[Compound 447, cyclopropyl ((S)-1-((1R,2S,5S)-6,6-dimethyl-2-(((S)-3-oxo-1-((S)-2-oxopyrrolidin-3-yl)-4-(trifluoromethoxy)butan-2-yl)carbamoyl)-3-azabicyclo[3.1.0]-hexan-3-yl)-3,3-dimethyl-1-oxobutan-2-yl)carbamate]", "values": [{"measurement": "EC50", "setting": "[1]", "result": "< 0.05", "unit": "µM"}]}, {"smiles": "CC(C)(C)NC(=O)C(=O)N1C[C@@H]2CC[C@@H]2[C@H]1C(=O)N[C@@H](C[C@@H]1CCNC1=O)C(=O)COC(F)(F)F", "note": "[Compound 561, (1S,2S,5R)-3-(2-(tert-butylamino)-2-oxoacetyl)-N-((S)-3-oxo-1-((S)-2-oxopyrrolidin-3-yl)-4-(trifluoromethoxy)butan-2-yl)-3-azabicyclo-[3.2.0]heptane-2-carboxamide]", "values": [{"measurement": "EC50", "setting": "[1]", "result": "0.2 to 0.5", "unit": "µM"}]}, {"smiles": "C[C@@H]1CN(C(=O)C(=O)NC(C)(C)C(F)(F)F)C[C@H]1C(=O)N[C@@H](C[C@@H]1CCNC1=O)C(=O)COC(F)(F)F", "note": "[Compound 293, (3S,4S)-4-methyl-N-((S)-3-oxo-1-((S)-2-oxopyrrolidin-3-yl)-4-(trifluoromethoxy)butan-2-yl)-1-(2-oxo-2-((1,1,1-trifluoro-2-methylpropan-2-yl)amino)acetyl)-pyrrolidine-3-carboxamide]", "values": [{"measurement": "EC50", "setting": "HeLa-ACE2 cells, SARS-CoV-2 infection, 24 h, bound printed in cell", "result": "> 1", "unit": "µM"}]}, {"smiles": "CC1(C)CCC(O)(C(=O)N2CC3(CC3)C[C@H]2C(=O)N[C@@H](C[C@@H]2CCNC2=O)C(=O)COC(F)(F)F)CC1", "note": "[Compound 633, (S)-5-(l-hydroxy-4,4-dimethylcyclohexane-1-carbonyl)-N-((S)-3-oxo-1-((S)-2-oxopyrrolidin-3-yl)-4-(trifluoromethoxy)butan-2-yl)-5-azaspiro[2.4]heptane-6-carboxamide]", "values": [{"measurement": "EC50", "setting": "[1]", "result": "< 0.05", "unit": "µM"}]}, {"smiles": "O=C(N[C@@H](C[C@@H]1CCNC1=O)C(=O)COC(F)(F)F)C1[C@H]2CCC[C@H]2CN1C(=O)[C@H]1CCCO1", "note": "(stereo partly drawn) [Compound 299, (1S,3aR,6aS)-N-((S)-3-oxo-1-((S)-2-oxopyrrolidin-3-yl)-4-(trifluoromethoxy)butan-2-yl)-2-((R)-tetrahydrofuran-2-carbonyl)octahydro-cyclopenta[c]pyrrole-l-carboxamide]", "values": [{"measurement": "EC50", "setting": "[2]", "result": "0.05 to 0.2", "unit": "µM"}]}, {"smiles": "CC(C)C[C@H](NS(=O)(=O)c1ccc2c(ccn2C)c1)C(=O)N[C@@H](C[C@@H]1CCNC1=O)C(=O)COc1c(F)c(F)cc(F)c1F", "note": "[Compound 765, (S)-4-methyl-2-((l-methyl-1H-indole)-5-sulfonamido)-N-((S)-3-oxo-1-((S)-2-oxopyrrolidin-3-yl)-4-(2,3,5,6-tetrafluorophenoxy)butan-2-yl)pentanamide]", "values": [{"measurement": "EC50", "setting": "[1]", "result": "< 0.05", "unit": "µM"}]}, {"smiles": "CC(=O)N[C@@H](CC(C)C)C(=O)N[C@@H](C[C@@H]1CCNC1=O)C(=O)COC(F)(F)F", "note": "[Compound 709, (S)-2-acetamido-4-methyl-N-((S)-3-oxo-l-((S)-2-oxopyrrolidin-3-yl)-4-(trifluoromethoxy)butan-2-yl)pentanamide]", "values": [{"measurement": "EC50", "setting": "[1]", "result": "0.2 to 0.5", "unit": "µM"}]}, {"smiles": "CC(C)(C)C[C@H](O)C(=O)N1CC2(CC2)C[C@H]1C(=O)N[C@@H](C[C@@H]1CCNC1=O)C(=O)COC(F)(F)F", "note": "[Compound 349, (S)-5-((S)-2-hydroxy-4,4-dimethylpentanoyl)-N-((S)-3-oxo-1-((S)-2-oxopyrrolidin-3-yl)-4-(trifluoromethoxy)butan-2-yl)-5-azaspiro[2.4]heptane-6-carboxamide]", "values": [{"measurement": "EC50", "setting": "[2]", "result": "< 0.05", "unit": "µM"}]}, {"smiles": "CC(C)C[C@H](NC(=O)C12CC(C(F)(F)F)(CO1)C2)C(=O)N[C@@H](C[C@@H]1CCNC1=O)C(=O)COC(F)(F)F", "note": "[Compound 316, N-((S)-4-methyl-1-oxo-1-(((S)-3-oxo-1-((S)-2-oxopyrrolidin-3-yl)-4-(trifluoromethoxy)butan-2-yl)amino)pentan-2-yl)-4-(trifluoromethyl)-2-oxabicyclo-[2.1.1]hexane-1-carboxamide]", "values": [{"measurement": "EC50", "setting": "[2]", "result": "< 0.05", "unit": "µM"}]}, {"smiles": "O=C1NCC[C@H]1C[C@H](NC(=O)[C@@H]1CC2(CC2)CN1C(=O)C(F)F)C(=O)COC(F)(F)F", "note": "[Compound 635, (S)-5-(2,2-difluoroacetyl)-N-((S)-3-oxo-1-((S)-2-oxopyrrolidin-3-yl)-4-(trifluoromethoxy)butan-2-yl)-5-azaspiro[2.4]heptane-6-carboxamide]", "values": [{"measurement": "EC50", "result": "0.05 to 0.2", "unit": "µM"}]}, {"smiles": "O=C(NC(CC1CCOCC1)C(=O)N[C@@H](C[C@@H]1CCNC1=O)C(=O)COC(F)(F)F)c1cc(-c2ccccc2F)on1", "note": "(stereo partly drawn) [Compound 183, 5-(2-fluorophenyl)-N-(1-oxo-1-(((S)-3-oxo-1-((S)-2-oxopyrrolidin-3-yl)-4-(trifluoromethoxy)butan-2-yl)amino)-3-(tetrahydro-2H-pyran-4-yl)propan-2-yl)isoxazole-3-carboxamide]", "values": [{"measurement": "EC50", "setting": "[2]", "result": "< 0.05", "unit": "µM"}]}, {"smiles": "CC[C@@H](N)C(=O)N1C[C@H]2[C@@H]([C@H]1C(=O)N[C@@H](C[C@@H]1CCNC1=O)C(=O)COC(F)(F)F)C2(C)C", "note": "[Compound 439, (1R,2S,5S)-3-((R)-2-aminobutanoyl)-6,6-dimethyl-N-((S)-3-oxo-1-((S)-2-oxopyrrolidin-3-yl)-4-(trifluoromethoxy)butan-2-yl)-3-azabicyclo[3.1.0]-hexane-2-carboxamide]", "values": [{"measurement": "EC50", "setting": "[1]", "result": "0.2 to 0.5", "unit": "µM"}]}, {"smiles": "CCCCC(=O)N1CC2(CC2)C[C@H]1C(=O)N[C@@H](C[C@@H]1CCNC1=O)C(=O)COC(F)(F)F", "note": "[Compound 618, (S)-N-((S)-3-oxo-1-((S)-2-oxopyrrolidin-3-yl)-4-(trifluoromethoxy)butan-2-yl)-5-pentanoyl-5-azaspiro[2.4]heptane-6-carboxamide]", "values": [{"measurement": "EC50", "setting": "[1]", "result": "0.05 to 0.2", "unit": "µM"}]}, {"smiles": "COC[C@@H](Nc1ccccc1F)C(=O)N[C@@H](CC(C)C)C(=O)N[C@@H](C[C@@H]1CCNC1=O)C(=O)COC(F)(F)F", "note": "[Compound 235, (S)-2-((R)-2-((2-fluorophenyl)amino)-3-methoxypropanamido)-4-methyl-N-((S)-3-oxo-1-((S)-2-oxopyrrolidin-3-yl)-4-(trifluoromethoxy)butan-2-yl)pentanamide]", "values": [{"measurement": "EC50", "setting": "[2]", "result": "< 0.05", "unit": "µM"}]}, {"smiles": "CC1(NC(=O)C(=O)N2C[C@H]3[C@@H]([C@H]2C(=O)N[C@@H](C[C@@H]2CCNC2=O)C(=O)COC(F)(F)F)C3(C)C)CC1", "note": "[Compound 469, (1R,2S,5S)-6,6-dimethyl-3-(2-((l-methylcyclopropyl)-amino)-2-oxoacetyl)-N-((S)-3-oxo-1-((S)-2-oxopyrrolidin-3-yl)-4-(trifluoromethoxy)butan-2-yl)-3-azabicyclo[3.1.0]-hexane-2-carboxamide]", "values": [{"measurement": "EC50", "setting": "[1]", "result": "0.05 to 0.2", "unit": "µM"}]}, {"smiles": "COc1cccc(NC(=O)C(=O)N[C@@H](Cc2cccc(F)c2)C(=O)N[C@@H](C[C@@H]2CCNC2=O)C(=O)COC(F)(F)F)c1", "note": "[Compound 242, N1-((S)-3-(3-fluorophenyl)-1-oxo-1-(((S)-3-oxo-1-((S)-2-oxopyrrolidin-3-yl)-4-(trifluoromethoxy)butan-2-yl)amino)propan-2-yl)-N2-(3-methoxy-phenyl)oxalamide]", "values": [{"measurement": "EC50", "setting": "[2]", "result": "< 0.05", "unit": "µM"}]}, {"smiles": "CC(C)(O)CC(=O)N1CC2(CC2)C[C@H]1C(=O)N[C@@H](C[C@@H]1CCNC1=O)C(=O)COC(F)(F)F", "note": "[Compound 717, (S)-5-(3-hydroxy-3-methylbutanoyl)-N-((S)-3-oxo-1-((S)-2-oxopyrrolidin-3-yl)-4-(trifluoromethoxy)butan-2-yl)-5-azaspiro[2.4]heptane-6-carboxamide]", "values": [{"measurement": "EC50", "setting": "[1]", "result": "0.05 to 0.2", "unit": "µM"}]}, {"smiles": "O=C1NCC[C@H]1C[C@H](NC(=O)[C@@H]1CC2(CC2)CN1C(=O)C(O)c1ccccc1C(F)(F)F)C(=O)COC(F)(F)F", "note": "(stereo partly drawn) [Compound 406, (6S)-5-(2-hydroxy-2-(2-(trifluoromethyl)-phenyl)acetyl)-N-((S)-3-oxo-1-((S)-2-oxopyrrolidin-3-yl)-4-(trifluoromethoxy)butan-2-yl)-5-azaspiro[2.4]heptane-6-carboxamide]", "values": [{"measurement": "EC50", "setting": "[1]", "result": "0.05 to 0.2", "unit": "µM"}]}, {"smiles": "CC(C)(C#N)NC(=O)C(=O)N1C[C@@H]2CCC[C@@H]2[C@H]1C(=O)N[C@@H](C[C@@H]1CCNC1=O)C(=O)COC(F)(F)F", "note": "[Compound 566, (1S,3aR,6aS)-2-(2-((2-cyanopropan-2-yl)amino)-2-oxoacetyl)-N-((S)-3-oxo-1-((S)-2-oxopyrrolidin-3-yl)-4-(trifluoromethoxy)butan-2-yl)octahydrocyclo-penta[c]pyrrole-1-carboxamide]", "values": [{"measurement": "EC50", "setting": "[1]", "result": "0.05 to 0.2", "unit": "µM"}]}, {"smiles": "CC1(C)[C@@H]2[C@@H](C(=O)N[C@@H](C[C@@H]3CCNC3=O)C(=O)COC(F)(F)F)N(C(=O)C34CC(C(F)(F)F)(CO3)C4)C[C@@H]21", "note": "[Compound 318, (1R,2S,5S)-6,6-dimethyl-N-((S)-3-oxo-1-((S)-2-oxopyrrolidin-3-yl)-4-(trifluoromethoxy)butan-2-yl)-3-(4-(trifluoromethyl)-2-oxabicyclo[2.1.1]-hexane-1-carbonyl)-3-azabicyclo[3.1.0]-hexane-2-carboxamide]", "values": [{"measurement": "EC50", "setting": "[2]", "result": "0.05 to 0.2", "unit": "µM"}]}]}
